These are literature values, as cited in publication PMC8373237 (Antimicrobial Agents and Chemotherapy, 2021).

The data set deals with Hrc1 T3SS, Pseudomonas syringae. Conditions: biochemical assay, cited from earlier work; for lowest known inhibitory concentration (∼), hrpA: ref [108].

On to `O=C(O)c1ccc(O)cc1` [4-Hydroxybenozic acid], for which the “lowest known inhibitory concentration (∼), hrpA” value was “∼2.5 mM hrpA^e”.

As to `O=C(N/N=C/c1ccc(O)c(O)c1O)c1ccccc1` [INP0401], the “lowest known inhibitory concentration (∼), hrp” value (ref [78]) was “∼50 hrp^e μM”.

As for `COc1cc(C(=O)O)ccc1O` [Vanillic acid], the “lowest known inhibitory concentration (∼), hrpA” value is on record as “∼2.5 mM hrpA^e”.
